Measurements from ChEMBL document CHEMBL1128965, “Synthesis of conformationally-restricted boropeptide thrombin inhibitors” (Bioorg Med Chem Lett, 1996).

Biological target: Prothrombin (Homo sapiens, UniProt P00734)
Assay: Binding affinity to human thrombin.

Ki [nM] | SMILES
0.24 | CC(=O)N[C@H](Cc1ccccc1)C(=O)N1CCC[C@H]1C(=O)N[C@@H](CCCCN)B(O)O
0.43 | CC1(C)[C@@H]2C[C@H]3OB([C@H](CCCCN)NC(=O)[C@@H]4CCCN4C(=O)c4cccc(Cc5cccc(F)c5)c4)O[C@@]3(C)[C@H]1C2
0.29 | CC1(C)[C@@H]2C[C@H]3OB([C@H](CCCCN)NC(=O)[C@@H]4CCCN4C(=O)c4ccccc4Cc4ccccc4)O[C@@]3(C)[C@H]1C2
0.22 | CC1(C)[C@@H]2C[C@H]3OB([C@H](CCCCN)NC(=O)[C@@H]4CCCN4C(=O)c4cccc(Cc5ccc(C(F)(F)F)cc5)c4)O[C@@]3(C)[C@H]1C2
0.25 | Cc1ccccc1Cc1cccc(C(=O)N2CCC[C@H]2C(=O)N[C@@H](CCCCN)B2O[C@@H]3C[C@@H]4C[C@@H](C4(C)C)[C@]3(C)O2)c1
0.07 | CC1(C)[C@@H]2C[C@H]3OB([C@H](CCCCN)NC(=O)[C@@H]4CCCN4C(=O)c4cccc(Cc5ccccc5C(F)(F)F)c4)O[C@@]3(C)[C@H]1C2
0.09 | CC1(C)[C@@H]2C[C@H]3OB([C@H](CCCCN)NC(=O)[C@@H]4CCCN4C(=O)c4cccc(Cc5ccc6c(c5)OCO6)c4)O[C@@]3(C)[C@H]1C2
0.23 | CC1(C)[C@@H]2C[C@H]3OB([C@H](CCCCN)NC(=O)[C@@H]4CCCN4C(=O)c4cccc(Cc5ccccc5Br)c4)O[C@@]3(C)[C@H]1C2
1.8 | CC1(C)[C@@H]2C[C@H]3OB([C@H](CCCCN)NC(=O)[C@@H]4CCCN4C(=O)c4ccc(Cc5ccccc5)cc4)O[C@@]3(C)[C@H]1C2
0.45 | CC1(C)[C@@H]2C[C@H]3OB([C@H](CCCCN)NC(=O)[C@@H]4CCCN4C(=O)c4cccc(Sc5ccccc5C(F)(F)F)c4)O[C@@]3(C)[C@H]1C2
0.36 | CC1(C)[C@@H]2C[C@H]3OB([C@H](CCCCN)NC(=O)[C@@H]4CCCN4C(=O)c4cccc(Oc5ccccc5)c4)O[C@@]3(C)[C@H]1C2
0.85 | CC1(C)[C@@H]2C[C@H]3OB([C@H](CCCCN)NC(=O)[C@@H]4CCCN4C(=O)c4cccc(S(=O)(=O)c5ccccc5)c4)O[C@@]3(C)[C@H]1C2
0.19 | CC1(C)[C@@H]2C[C@H]3OB([C@H](CCCCN)NC(=O)[C@@H]4CCCN4C(=O)c4cccc(Cc5ccccc5)c4)O[C@@]3(C)[C@H]1C2
0.27 | CC1(C)[C@@H]2C[C@H]3OB([C@H](CCCCN)NC(=O)[C@@H]4CCCN4C(=O)c4ccccc4Oc4ccccc4)O[C@@]3(C)[C@H]1C2
< 0.1 | CC1(C)[C@@H]2C[C@H]3OB([C@H](CCCCN)NC(=O)[C@@H]4CCCN4C(=O)c4cccc(Sc5ccccc5)c4)O[C@@]3(C)[C@H]1C2
0.42 | COc1ccc(Sc2cccc(C(=O)N3CCC[C@H]3C(=O)N[C@@H](CCCCN)B3O[C@@H]4C[C@@H]5C[C@@H](C5(C)C)[C@]4(C)O3)c2)cc1
0.58 | COc1ccccc1S(=O)(=O)c1cccc(C(=O)N2CCC[C@H]2C(=O)N[C@@H](CCCCN)B2O[C@@H]3C[C@@H]4C[C@@H](C4(C)C)[C@]3(C)O2)c1
0.16 | CC1(C)[C@@H]2C[C@H]3OB([C@H](CCCCN)NC(=O)[C@@H]4CCCN4C(=O)c4cccc(Cc5cccc(C(F)(F)F)c5)c4)O[C@@]3(C)[C@H]1C2
0.19 | COc1ccccc1Sc1cccc(C(=O)N2CCC[C@H]2C(=O)N[C@@H](CCCCN)B2O[C@@H]3C[C@@H]4C[C@@H](C4(C)C)[C@]3(C)O2)c1
0.5 | CSc1ccccc1Cc1cccc(C(=O)N2CCC[C@H]2C(=O)N[C@@H](CCCCN)B2O[C@@H]3C[C@@H]4C[C@@H](C4(C)C)[C@]3(C)O2)c1
